These results are taken from ChEMBL document CHEMBL1201862, “PubChem BioAssay data set” (2004).

The structures appear in SMILES notation.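 Cultured in 96-well plates, cells were exposed to test compound for 48 hours across five concentrations. GI50 is the concentration that inhibits growth by half.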 Activity calls are given as the source filed them. Cut-off read from the data, not from the text of the source: active = GI50 up to about 1.1 µM and inactive = higher. Bounds are passed on as bounds.

What all share (assay): inhibition of tumour cell growth, NCI panel, 48 h
Assay [1] relates to A549.
For assay [2], the system named is LOX IMVI.
Assay [3] deals with ACHN.
The test system of assay [4] is SW-620.
The subject of assay [5] is MCF7.
The subject of assay [6] is 786-0.
For assay [7], the system named is T47D.
In assay [8] the test system is Hs-578T.
Assay [9] has as its system UO-31.
Assay [10] deals with CCRF-CEM.
In assay [11] the test system is IGROV-1.
Assay [12] concerns PC-3.
The test system of assay [13] is MDA-MB-435.
The test system of assay [14] is SF-539.
In assay [15] the test system is SK-OV-3.
Assay [16] concerns TK-10.
The test system of assay [17] is OVCAR-5.
Assay [18] deals with OVCAR-4.

As for `CC(C)=NNc1snnc1C(N)=O`, the GI50 in assay [1] was > 100 µM (inactive); in assay [2] it was > 100 µM (inactive); in assay [3], > 100 µM (inactive); in [4], > 10 µM (inactive); in assay [5], > 100 µM (inactive); in assay [6], > 100 µM (inactive). The GI50 in assay [7], in assay [8], in assay [9], in assay [10], in [11] and in assay [12] was > 100 µM (inactive) in each case. Also, the GI50 in assay [13], in assay [14], in assay [15], in assay [16] and in assay [17] was > 100 µM (inactive) in each case.
Regarding `O=c1oc2ccc(Cl)cc2cc1-c1cn2ccsc2n1`, the GI50 in assay [1] is 38.4 µM (inactive); in assay [2] it was 43.2 µM (inactive); in [18] it was 33.4 µM (inactive); in assay [3], 60.5 µM (inactive); in assay [4], 59.7 µM (inactive); in assay [5] it was 20.9 µM (inactive). Also, the GI50 in assay [6] is 58.5 µM (inactive); in assay [7], 34.5 µM (inactive); in [8] it was 76.4 µM (inactive); in assay [9], 34.3 µM (inactive); in [10] it was 25.8 µM (inactive); in assay [11] it was 20.5 µM (inactive). For the same compound, the GI50 in [12] was 52.6 µM (inactive); in assay [13], 40.8 µM (inactive); in assay [14] it was 98.4 µM (inactive); in [15], 83.6 µM (inactive); in assay [16], > 100 µM (inactive).
On to `CCOC(=O)c1c(SC(=O)c2ccc(OC)cc2)n(-c2ccccc2)c(=S)n(-c2ccccc2)c1=O`, for which the GI50 in assay [1] is > 100 µM (inactive); in [2], 36.3 µM (inactive); in assay [18], > 100 µM (inactive); in assay [3], > 100 µM (inactive); in assay [4], 26.7 µM (inactive); in assay [5], 30.9 µM (inactive). In addition, the GI50 is 37.8 µM (inactive) in [6]; > 100 µM (inactive) in assay [7]; 45.4 µM (inactive) in assay [8]; 35.6 µM (inactive) in [10]; 21.1 µM (inactive) in assay [11]; 59.3 µM (inactive) in [12]. The GI50 is 54.6 µM (inactive) in assay [13]; 21.2 µM (inactive) in assay [14]; > 100 µM (inactive) in assay [15]; > 100 µM (inactive) in assay [16]; > 100 µM (inactive) in assay [17].
Regarding `CC1CC/C(=C\c2ccc(Cl)cc2)C2OC(N)=C(C#N)C(c3ccc(Cl)cc3)=C12` (configuration not stated), the GI50 in assay [2] is 13 µM (inactive); in assay [3] it was 16.4 µM (inactive); in assay [4] it was 21.4 µM (inactive); in assay [5], 11.4 µM (inactive); in assay [6] it was 13.6 µM (inactive); in [7] it was 0.442 µM (active). In addition, the GI50 in [8] is 15.6 µM (inactive); in [9] it was 9.31 µM (inactive); in assay [10] it was 5.06 µM (inactive); in [11], 12.3 µM (inactive); in [12], 11.9 µM (inactive); in [13], 18.4 µM (inactive). The GI50 is 14.3 µM (inactive) in assay [14], 18.2 µM (inactive) in assay [15], 25.7 µM (inactive) in assay [16] and 15.9 µM (inactive) in [17].
With `CCCCCCCCCCCCCCCCCCNC(=O)C(N)Cc1ccc(OCc2ccccc2)cn1` (configuration not stated), the GI50 in assay [1] is 19.5 µM (inactive); in [2], 17.4 µM (inactive); in assay [18], 17.2 µM (inactive); in assay [3] it was 24.1 µM (inactive); in assay [4] it was 23.2 µM (inactive); in [5], 19.4 µM (inactive). Further, the GI50 in assay [6] was 24.5 µM (inactive); in [7], 20.4 µM (inactive); in assay [8], 21.6 µM (inactive); in assay [9] it was 17.3 µM (inactive); in assay [10] it was 13.5 µM (inactive); in [11], 15.2 µM (inactive). Moreover, the GI50 in [12] was 14.2 µM (inactive); in [13], 17.3 µM (inactive); in [15], 22.7 µM (inactive); in [16], 15.4 µM (inactive); in assay [17] it was 21.1 µM (inactive).
In the case of `Cc1ccc(OCC2OC(n3cnc4c(Cl)nc(Cl)nc43)CC2Oc2ccc(C)cc2)cc1` (configuration not stated), the GI50 was 3.5 µM (inactive) in assay [1]; 1.79 µM (inactive) in assay [2]; 2.15 µM (inactive) in assay [18]; 1.37 µM (inactive) in assay [3]; 3.66 µM (inactive) in [4]; 1.85 µM (inactive) in assay [5]. The GI50 in [6] is 14.5 µM (inactive); in [7] it was 2.14 µM (inactive); in assay [8], 1.9 µM (inactive); in assay [10], 4.3 µM (inactive); in [11] it was 2.04 µM (inactive); in assay [12], 2.44 µM (inactive). Besides, the GI50 in assay [13] was 2.26 µM (inactive); in assay [14], 1.93 µM (inactive); in assay [15], 19.2 µM (inactive); in assay [16], 11.2 µM (inactive); in [17] it was 5.78 µM (inactive).
`O=C1C=Cc2c1csc2Br`: the GI50 was 41.5 µM (inactive) in assay [1]; 25.5 µM (inactive) in assay [2]; 70.8 µM (inactive) in [18]; 30.7 µM (inactive) in assay [3]; 22.3 µM (inactive) in assay [4]; 24.9 µM (inactive) in [5]. The GI50 in [6] was 25.8 µM (inactive); in [7], 54.5 µM (inactive); in assay [8], 41.2 µM (inactive); in [9] it was 24.2 µM (inactive); in assay [10] it was 16.9 µM (inactive); in [11] it was 38.3 µM (inactive). Also, the GI50 in assay [12] was 65.3 µM (inactive); in assay [13], 32.1 µM (inactive); in [15] it was > 100 µM (inactive); in assay [16], 65 µM (inactive); in assay [17], > 100 µM (inactive).
Regarding `CC(C)c1c(P(=O)(c2ccccc2)c2ccccc2)n(C)c2ccccc12`, the GI50 in assay [1] is 51.6 µM (inactive); in [2], > 100 µM (inactive); in [18], 71.4 µM (inactive); in assay [3] it was 35.2 µM (inactive); in assay [4], > 100 µM (inactive); in assay [5], > 100 µM (inactive). Further, the GI50 is > 100 µM (inactive) in assay [6]; 77.1 µM (inactive) in [7]; > 100 µM (inactive) in assay [8]; 31.8 µM (inactive) in assay [9]; 59 µM (inactive) in assay [10]; 58.7 µM (inactive) in assay [12]. Moreover, the GI50 in assay [13] is 45.5 µM (inactive); in [14] it was > 100 µM (inactive); in assay [16] it was > 100 µM (inactive); in assay [17], 54.7 µM (inactive).
In the case of `CCc1n[nH]c(=O)n1/N=C/c1ccc(/C=N/n2c(CC)n[nH]c2=O)cc1`, the GI50 in assay [1], in [2], in [18], in assay [3], in assay [4] and in [5] was > 100 µM (inactive) throughout. In addition, the GI50 in [6], in assay [7], in assay [8], in assay [9], in assay [10] and in [11] was > 100 µM (inactive) throughout. For the same compound, the GI50 in assay [12], in [13], in [16] and in assay [17] was > 100 µM (inactive) throughout.
`C[N+](C)=C/C=C(\Cl)c1ccc2ccccc2c1`: the GI50 in [1] is > 75.7 µM (inactive); in assay [2] it was 4.33 µM (inactive); in assay [18], 3.82 µM (inactive); in [3] it was 14 µM (inactive); in [4], 4.29 µM (inactive); in [5], 19 µM (inactive). Moreover, the GI50 in assay [6] is 13.1 µM (inactive); in assay [7], 12.4 µM (inactive); in assay [8], 32.4 µM (inactive); in assay [9], 17 µM (inactive); in assay [10], 1.66 µM (inactive); in assay [11], 16.5 µM (inactive). The GI50 is 19.8 µM (inactive) in [12]; 16.7 µM (inactive) in [13]; 25.1 µM (inactive) in assay [14]; 18 µM (inactive) in [15]; 16.3 µM (inactive) in [16]; 19.9 µM (inactive) in assay [17].
On to `O=C(Nc1ccccc1)c1cc2ccccc2c(/N=N\c2cccc([N+](=O)[O-])c2)c1O`, for which the GI50 in [1] was > 100 µM (inactive); in assay [18], 97.5 µM (inactive); in [3], 31 µM (inactive); in assay [4], > 100 µM (inactive); in assay [5] it was > 100 µM (inactive); in assay [6], 31.3 µM (inactive). In addition, the GI50 in [7] is > 100 µM (inactive); in assay [8] it was 21.2 µM (inactive); in assay [9] it was > 100 µM (inactive); in [10], > 100 µM (inactive); in assay [11] it was 37.7 µM (inactive); in assay [12] it was > 100 µM (inactive). Further, the GI50 in assay [13] is > 100 µM (inactive); in [14] it was 54.8 µM (inactive); in [15], 30.3 µM (inactive); in [16], > 100 µM (inactive); in [17], > 100 µM (inactive).
Take `CC1(C)/C(=N\Nc2ccc([N+](=O)[O-])cc2[N+](=O)[O-])C2CCC1C2` (configuration not stated): the GI50 in [1] was > 100 µM (inactive); in assay [2] it was > 100 µM (inactive); in assay [18] it was 84.5 µM (inactive); in [3] it was 54 µM (inactive); in assay [4], > 100 µM (inactive); in assay [5], > 100 µM (inactive). The GI50 was 81.8 µM (inactive) in assay [6]; > 100 µM (inactive) in [7]; 5.41 µM (inactive) in [8]; > 100 µM (inactive) in [9]; > 10 µM (inactive) in assay [10]; > 100 µM (inactive) in assay [11]. The GI50 in assay [12] is > 100 µM (inactive); in assay [13] it was > 100 µM (inactive); in assay [15], 27.7 µM (inactive); in assay [16], > 100 µM (inactive); in assay [17], > 100 µM (inactive).
